From US20220047687A1, “CHEMICAL SCALPEL” (FUNDACIÓN INSTITUTO DE INVESTIGACIÓN SANITARIA FUNDACIÓN …, priority 2019, published 2022)
“Also recorded” adds a separate entry of the source.

Tests used:
MMP-2 = assay: ELISA for collagenase residues in blood, anti-MMP-2; assay type: in vivo, rat; settings: after treatment and the follow-up period, all animals
Protocol: (§1) The procedure was performed 2 times in the TCQ group, the first time with collagenase and after 2 minutes peritoneal washing with mitomycin C at the different concentrations to be tested was repeated. […] Blood was also collected from all the animals before sacrificing them, the blood was processed within the hour following its extraction to obtain plasma and to analyze, on one hand, the existence of the mutated KRAS oncogene (mutation in codon 12 of exon 1 expressed by DHD cells), and on the other hand the existence of collagenase traces or residues in blood after the peritoneal washes. A digital PCR was used for the KRAS oncogene localization study. For the collagenase trace study, the anonymized samples were sent to Lyposmol laboratories for the performance of specific anti-MMP-1 and anti-MMP-2 ELISAS.

mutated KRAS oncogene = assay: Digital PCR of KRAS in plasma; assay type: in vivo, rat; settings: plasma
Protocol: as §1
To analyze the presence of mutated KRAS in the blood of the different groups by means of digital PCR, DNA was extracted from at least 2 ml of plasma/group by means of the QlAamp Circulating Nucleic Acid kit according to the manufacturer's data and the results were those listed in Table 4.

[1] = system: peritoneal carcinomatosis (DHD cells); assay: Survival and necropsy of rats with carcinomatosis after peritoneal washing (groups D, E, F); assay type: in vivo, rat; settings: group F, collagenase 37 U/ml, 3 animals
Protocol: as §1
Each group initially consisted of 6 rats (2×3).

[2] = system: tissue originating from patients with peritoneal carcinomatosis; assay: In vitro collagenase treatment of patient tumor tissue fragments; assay type: cell-based, human; settings: for cells released from tissues: culture at 96 hours
Protocol: After obtaining authorization from the Committee for Research with Medicinal Products (PIC 75/2016_FJD) of Fundación Jiménez Díaz, the tissue originating from patients with peritoneal carcinomatosis who signed the consent was collected. Tissue fragments were included in multiwell plates and treated with 35 U/mL of collagenase for 30 minutes or for a period of 24 hrs, the cultures were then washed and cells obtained from the enzyme treatment were analyzed. The idea was to check at different times if mesothelial cells were obtained alone or tumor cells were obtained as well. FIG. 1.

peritoneal tissues = assay: First tests of peritoneal washing with collagenase on mouse (fine-tuning); settings: for necropsy findings: mice
Protocol: Six 5-week old double knock-out female mice (LIPDKO), from which the lipocalin-2 gene (which affects neutrophil recruitment) and the ApoE gene (which makes it more probable for the mice to develop atherosclerosis) have been eliminated, were used. […] Each concentration was injected to 2 mice according to their weight.
Cells obtained from washing which grew in culture dishes as well as the morphology of the peritoneal tissues after washing at different concentrations were analyzed.
Once the enzyme dose was selected, the actuation time was determined in the same manner and on the same model by means of tests from 40, 30, 20, 10, and 5 minutes. Throughout this fine-tuning method, the washing liquid was collected and cultured in a complete medium to analyze the cells obtained; different organs of the animals were also collected at the same time to check for the existence at any time (concentration/time) of any organ damage and to check the condition of the peritoneal tissues.

[3] = system: peritoneal carcinomatosis (DHD cells); assay: Adjusting the dose of collagenase as co-adjuvant in rats with carcinomatosis; assay type: in vivo, rat; settings: 10 minutes, 37° C.
Protocol: In this sense, after the inoculation of DHD cells in all the animals, and therefore the induction of solid tumors in the peritoneum (peritoneal carcinomatosis), the optimum dose of collagenase in terms of safety for use thereof as a co-adjuvant for or enhancer of chemotherapy treatment with mitomycin C in various work groups was determined: • Control group: washed only with Ringer's lactate. The mesoderm readily separates and washing is non-hematic. Compact omentum. • Group 1: 370 U/mL of collagenase. Hematic washing liquid, destruction of the omentum and mesoderm. Tumor fragments in the washing liquid. • Group 2: 148 U/mL of collagenase. Slightly hematic washing liquid, readily separable omentum and mesoderm. Solid tumor fragments are observed in the washing liquid. • Group 3: 74 U/mL of collagenase. Non-hematic washing liquid, readily separable omentum and mesoderm. Few implants are observed in the washing liquid but the accessibility of the tumor implants in the mesoderm and omentum is absolute. • Group 4: 37 U/mL of collagenase. Non-hematic washing liquid, readily separable omentum and mesoderm. No tumor implants observed in the washing liquid, but they are seen to be completely exposed in both the mesoderm and omentum.
The surgical procedures during this phase consisted of a first method of peritoneal cancer induction in which DHD cells were injected into the peritoneum and 6-8 weeks were allowed to elapse until the checking for the existence of tumor masses in the peritoneum by means of abdominal palpation, and a second method of treatment in which, after giving the animals inhalation anesthesia, the abdominal cavity was exposed by means of a longitudinal incision of the abdomen, the peritoneal cavity filled with the collagenase solution at the different concentrations to be tested at 37° C.

MMP-1 = assay: ELISA for collagenase residues in blood, anti-MMP-1; assay type: in vivo, rat; settings: after treatment and the follow-up period, all animals
Protocol: as §1

[4] = system: peritoneal carcinomatosis (DHD cells); assay: Phase I fine-tuning of collagenase peritoneal washing on rats with peritoneal carcinomatosis
Protocol: For the development of the “in vivo” model, carcinomatosis was caused in 6 BDIX rats, treatment was proposed after 4 weeks. The treatment consisted of using different concentrations (370 U/mL, 2×148 U/mL, 74 U/mL, 37 U/mL, 0) of collagenase by means of peritoneal washing and it was performed in an open system by means of using a perfusion pump on 3 animals and without using any perfusion pump on 3 other animals (FIG. 3). […] The method for peritoneal washing consisted of, after giving the animals inhalation anesthesia, exposing the abdominal cavity with a longitudinal incision and filling the peritoneal cavity with collagenase diluted to the different concentrations mentioned above. Continuous washing of the peritoneum (only with Ringer's lactate) was then performed; the animals were chosen randomly in each case and treatment lasted for 10 minutes in all the animals.
Washed tissue samples as well as organs were collected for histological studies in all cases (FIG. 4).

cytokines and chemokines = assay: Cytokines circulating in plasma after collagenase washing; assay type: in vivo, rat
Protocol: A new blood test was performed with the 10 rats in the 1st group. For each of them, blood was taken 15 days after surgery. Post-collagenase cytokines were analyzed.
A new blood test is performed on the 6 rats in the 2nd group on 26/07/2018 and on the 4 controls.
Post-collagenase cytokines are analyzed

Collagenase
collagenase residues in blood, MMP-2 ELISA (MMP-2): negative | Mutated KRAS event no. (mutated KRAS oncogene; group A (healthy rats, collagenase 37 U/mL)): 0 | Mutated KRAS event no. (mutated KRAS oncogene; group F (DHD + collagenase 37 U/mL)): 1 | Observations (necropsy) ([1]; 1 month): Localized carcinomatoses in intestine; also recorded: No adhesions | Observations (necropsy) ([1]; 2 months): Localized carcinomatoses in abdomen; also recorded: with nodules in liver. No adhesions | effect of collagenase on tumor tissues in vitro ([2]; 35 U/mL): breaks the edges of the tissues, releasing mesothelial cells and limiting tumor vascularization | enzyme time beyond which tissues become damaged and viability of extracted cells is inhibited ([2]; in vitro): exceeding 45 minutes | cells released from tissues ([2]; tissues digested for 30 minutes): mesothelial cells released by collagenase | cells released from tissues ([2]; tissues digested for 24 hours): release of cells with tumor morphology and highly refringent mesothelial cells | clinical observations half an hour after administration (peritoneal tissues; mice 5 and 6, highest doses of collagenase): lethargic, exhibited signs of pain and a very reduced response to handling; also recorded: the abdominal wall had become detached | mortality (peritoneal tissues; mice with the highest doses of collagenase): died within one hour | necropsy findings (peritoneal tissues; 17.5 U/mL and 8.75 U/mL (one mouse each line)): somewhat hematic abdominal wall that has experienced the least thinning; also recorded: abdominal wall with a normal appearance and color | necropsy findings (peritoneal tissues; 35 U/mL): very thin hematic abdominal wall that ruptures by itself | necropsy findings (peritoneal tissues; 87.5 U/mL): hematic, practically transparent abdominal wall that completely comes off the skin and ruptures by itself when touched | clinical observations half an hour after administration (peritoneal tissues; one mouse, 35 U/mL): responded well to handling but exhibited signs of pain | washing liquid, omentum, mesoderm and tumor implants after washing ([3]; Group 1: 370 U/mL): Hematic washing liquid, destruction of the omentum and mesoderm. Tumor fragments in the washing liquid. | washing liquid, omentum, mesoderm and tumor implants after washing ([3]; Group 2: 148 U/mL): Slightly hematic washing liquid, readily separable omentum and mesoderm. Solid tumor fragments are observed in the washing liquid. | washing liquid, omentum, mesoderm and tumor implants after washing ([3]; Group 3: 74 U/mL): Non-hematic washing liquid, readily separable omentum and mesoderm. Few implants are observed in the washing liquid but the accessibility of the tumor implants in the mesoderm and omentum is absolute. | washing liquid, omentum, mesoderm and tumor implants after washing ([3]; Group 4: 37 U/mL): Non-hematic washing liquid, readily separable omentum and mesoderm. No tumor implants observed in the washing liquid, but they are seen to be completely exposed in both the mesoderm and omentum. | collagenase residues in blood, MMP-1 ELISA (MMP-1): negative | Macroscopic observations ([4]; animal ID 1, 35 U/ml, PCI 13): All rather hematic. Implants | Macroscopic observations ([4]; animal ID 2, 8.75 U/ml, PCI 10, pump not used): Pump is not used. Implants do | Macroscopic observations ([4]; animal ID 3, 35 U/ml, PCI 2): Mesoderm readily separates. | Macroscopic observations ([4]; animal ID 5, 87.5 U/ml, PCI 10): All hematic. Omentum, | follow-up of the only animal left alive after treatment ([4]; rat, in vivo): showed no impairments or pain | IL4 in plasma vs PBS (cytokines and chemokines; anti-inflammatory cytokine): Insignificant increase | IL10 in plasma vs PBS (cytokines and chemokines; anti-inflammatory cytokine): Insignificant increase | levels of all the cytokines and chemokines between the 2 groups (cytokines and chemokines; at four months): normalized | G-CSF in plasma vs PBS (cytokines and chemokines; chemokines): no difference | GM-CSF in plasma vs PBS (cytokines and chemokines; chemokines): no difference | KC in plasma vs PBS (cytokines and chemokines; chemokines): no difference | M-MCF in plasma vs PBS (cytokines and chemokines; chemokines): no difference | MCP1 in plasma vs PBS (cytokines and chemokines; chemokines): significant increase | MIP3a in plasma vs PBS (cytokines and chemokines; chemokines): no difference | MIPla in plasma vs PBS (cytokines and chemokines; chemokines): no difference | RANTRES in plasma vs PBS (cytokines and chemokines; chemokines): no difference | VEGF in plasma vs PBS (cytokines and chemokines; chemokines): significant increase | IL12-p70 in plasma vs PBS (cytokines and chemokines; pro-inflammatory cytokine): Significant increase (p<0.01) | INF-gamma in plasma vs PBS (cytokines and chemokines; pro-inflammatory cytokine): no differences | TNF-alpha in plasma vs PBS (cytokines and chemokines; pro-inflammatory cytokine): Significant increase (p<0.01) | IL1a in plasma vs PBS (cytokines and chemokines; regulatory cytokine): no difference | IL1b in plasma vs PBS (cytokines and chemokines; regulatory cytokine): no difference | IL2 in plasma vs PBS (cytokines and chemokines; regulatory cytokine): significant increase (p<0.05) | IL5 in plasma vs PBS (cytokines and chemokines; regulatory cytokine): no difference | IL6 in plasma vs PBS (cytokines and chemokines; regulatory cytokine): no difference | IL7 in plasma vs PBS (cytokines and chemokines; regulatory cytokine): no difference | IL13 in plasma vs PBS (cytokines and chemokines; regulatory cytokine): no difference | IL17a in plasma vs PBS (cytokines and chemokines; regulatory cytokine): no difference | IL18 in plasma vs PBS (cytokines and chemokines; regulatory cytokine): significant increase (p<0.05)
